The record followed here is a melting point compilation (Tetko et al.; mined from patent text by program, amines drawn as free bases though some values may be those of a salt).

What is called melting point is the temperature, or range, at which the solid turns liquid.

`CN1c2ccc(C=C(c3ccccc3)c3ccccc3)cc2S(=O)(=O)c2cc(C=C(c3ccccc3)c3ccccc3)ccc21` displayed a melting point of 246 to 252 °C. Then `CCOC(=O)c1ccc(NC(=O)Nc2nnc(-c3cc(Cl)cc(Cl)c3O)s2)cc1`, with greater than 300 °C; and `CC(=O)Oc1c(C(C)(C)C)cc2c(c1C(C)(C)C)CC(C)(C)O2`, with 97.7 °C; and `CC(NC(=O)c1c(Cl)ccnc1Cl)c1ncc(C(F)(F)F)cc1Cl` (single isomer, unassigned; (+)), with 110 to 111 °C. Under `O=c1c2cc(F)c(F)cc2n(-c2ccccc2F)c(=O)n1OCc1ccccc1` stands 204 to 206 °C; under `c1ccc2c(c1)c1[nH]cnc1c1nnnn21`, greater than 300 °C; under `CC1(C)CCC(C)(C)c2cc(-c3cc(-c4ccc(C(=O)O)cc4)ccc3OCCCN)ccc21`, 243 °C. Then `COCC(=O)Nc1cccc(C2(c3ccncc3)N=C(N)N(C)C2=O)c1` (configuration not stated), with 92 to 93 °C; and `CSc1cc2c(cn1)c(=O)n1nc(C)cc1n2C`, with greater than 300 °C.

As to `COc1ccc(NC=C2C(=O)OC(=O)c3cc4cccc(C)c4nc32)cc1OC`, the melting point fell in the range of 280 to 281 °C. Take `CC12CC(=CO)C(=O)C=C1CCC1C2CCC2(C)C1C=CC2(C)O` (configuration not stated): the melting point is 176 °C.

As to `O=C(Nc1ccccc1)c1cccs1`, the melting point fell in the range of 139 to 149 °C. For the molecule `O=C(O)CC(CC(=O)O)NC(=O)OCC1c2ccccc2-c2ccccc21`, the melting point fell in the range of 189 to 190 °C. Then `COC(=O)C(C)(C)N(OC(C)(C)C#N)C(C)(C)C`, with 78 to 85 °C; and `CCOC(=O)C(C#N)=Cc1cc(Oc2c(Cl)cc(C(F)(F)F)cc2Cl)ccc1[N+](=O)[O-]`, with 99 °C; and `CCOc1ccc(C2=NC[C@@H](OC(=O)Nc3ccccc3)[C@H](c3ccccc3)O2)cc1` (racemic), with 80 °C. Under `CSC[C@H](NCc1ccccc1N)C(=O)O` stands 193 °C; under `OCC(O)Cc1nccn1CCCCc1ccc(OCc2coc(/C=C/c3ccc(C(F)(F)F)cc3)n2)cc1` (configuration not stated), 142 to 143 °C; under `CCOC(=O)c1ccc(Cn2c(C)nc3cnccc32)cc1`, 164 to 166 °C.

The molecule `COc1ncccc1-c1ccc(OC2SCC(OC(C)=O)C(OC(C)=O)C2OC(C)=O)c(Cl)n1` (configuration not stated) showed a melting point of 221 °C.

As to `COc1ccc2c(c1)c1c3c(c(-c4c(Cl)cccc4Cl)cc1n2CCC(N)=O)C(=O)NC3=O`, the melting point lay within 261 to 264 °C.

Regarding `Fc1cc(Cl)ccc1-n1nc2c(c1Br)CCCCC2`, the melting point lay in the range of 59 to 60 °C. On to `Cc1cc([N+](=O)[O-])c(NC(C)C(=O)N(C)O)c([N+](=O)[O-])c1` (configuration not stated), for which the melting point fell in the range of 171 to 172 °C. Under `Clc1ccccc1C(c1ccc(-c2ccccc2)cc1)n1ccnc1` (configuration not stated) stands 90 °C; under `Cc1oc(-c2ccccc2)nc1CCC(O)c1ccc(CCC2OC(=O)NC2=O)cc1` (configuration not stated), 145 to 146 °C. Then `CC(CNCC(O)c1ccccc1)OCc1ccccc1` (configuration not stated), with 90 to 100 °C; and `CCCN(Cc1ccc(C(=O)N(CCC)C2CCc3ncsc3C2)cc1)C1CCc2ncsc2C1` (configuration not stated), with 85 °C; and `Oc1ccc2nc(-c3ccc(O)c(F)c3)oc2c1`, with 269 to 271 °C.

As to `CC(=O)N1c2ccc(O)cc2C(C)=CC1(C)C`, the melting point lay in the range of 214 to 216 °C. The molecule `COC(C(N)=S)c1ccccn1` (configuration not stated) came in with a melting point of 157 to 159 °C. Under `C#CCn1cc(Br)cnc1=O` stands 139 to 141 °C; under `Cc1ccc(-c2ccc(Cl)c(C(=O)O)n2)cc1C(=O)NCC1CCCCCC1`, 177 to 178 °C; under `C=C1N(c2ccccc2)C(=O)OC12CCN(C(=O)N1CCN(C)CC1)CC2`, 139 to 140 °C. Then `CCOC(=O)c1cc(-c2ccc(N)cc2)cnc1C`, with 137 to 138 °C; and `COC1=C(C)C(=O)c2ccccc2C1=O`, with 93 to 94 °C; and `COC(=O)c1ccc(CN2CCOc3ccc([N+](=O)[O-])cc32)c(OC)c1`, with 130 to 132 °C.

As for `NS(=O)(=O)c1ccc(C2=C(c3cccc(F)c3F)CCC2)cc1`, the melting point was 133 to 134 °C. Under `COC(=O)C[C@H](Cc1ccc(-c2ccccc2)cc1)NCP(=O)(OC)OC` stands 67 °C; under `CCc1nnc(-c2ccc(OC)cc2)n1-c1cccc(C(F)(F)F)c1`, 140 °C. Then `O=C(Nc1cn(C2CCCCO2)nc1C(=O)NCCC(F)(F)F)c1ccccn1` (configuration not stated), with 144 to 145 °C. In the case of `CCOc1nn(-c2ccc(C(F)(F)F)cn2)cc1CCOc1ccccc1CC(=O)O`, the melting point lay within 134 to 135 °C.

In turn, `CN1CCC(c2[nH]c(=O)c3ccccc3c2-c2ccc(Cl)cc2)CC1` registered a melting point of 254 to 256 °C.

`CCOC(=O)C1=C(C)NC(C)=C(C(=O)OC)C1c1cc([N+](=O)[O-])ccc1Cl` (configuration not stated) returned a melting point of 163 to 164 °C. Then `CCc1nn(CCNS(=O)(=O)c2cn(C)cn2)c(CC)c1Cc1cc(Cl)cc(Cl)c1`, with 172 to 174 °C.

Regarding `CN1CCN(c2nnc3c4ccccc4c(Cl)cn23)CC1`, the melting point is 150 to 153 °C.

The molecule `Nc1ccc(O)c(C(=O)Nc2cccc3[nH]ccc23)c1` had a melting point greater than 260 °C. Then `C[C@@H](NC(=O)[C@H](Cc1ccc(O)cc1)NC(=O)OC(C)(C)C)C(=O)NCC(=O)Oc1c(Cl)c(Cl)c(Cl)c(Cl)c1Cl`, with 222 °C; and `Nc1cnc2c(F)c(Cl)c(F)cc2c1`, with 270 °C. Under `Oc1c2c(nn1-c1ncccc1C(F)(F)F)CCc1ccccc1-2` stands 174 to 175 °C; under `NC(=O)C(OC(=O)Nc1cccc(Cl)c1)(C(N)=O)c1ccccc1`, 196 to 198 °C; under `COC(=O)CCCCCCCC(=O)Nc1c(I)c(C(=O)O)c(I)c(N(C)C(C)=O)c1I`, 198 to 203 °C.

Molecule `CC(C)n1nc(-c2c(OCC(=O)O)nc(N)nc2-c2ccccc2)ccc1=O` had a melting point of 215 to 217 °C.

As for `CCCC1C(=O)C(NC(=O)C2CCc3ccccc3C2)=C(N)C(CCC)C1=O` (configuration not stated), the melting point is 202 to 204 °C.

In turn, `CCOCCc1ccc(OCCNc2ncnc(C)c2Cl)c(C)c1` showed a melting point of 57 to 58 °C. Under `O=c1c(Cl)c(Cl)cnn1-c1cc(C(F)(F)F)cc(C(F)(F)F)c1` stands 255 to 262 °C; under `CC(C)CN1N(C)Nc2c3ncnc-3c3ccncc3n21`, 157 to 158 °C. `O=C(NC(=S)NCCSCc1c[nH]cn1)c1ccccc1`: the melting point is 126 to 128 °C.

The molecule `Cc1ccc(S(=O)(=O)OCC2Cc3cccc(Nc4ccc(C)c(C)c4)c3O2)cc1` (configuration not stated) returned a melting point of 88 to 90 °C. `N#Cc1ncc(F)cc1OC1SCC(O)C(O)C1O` (configuration not stated) gave a melting point of 94 °C. Under `N#CCCn1cccc1-c1ccc2cnc(Nc3cccc(N4CCCC4=O)c3)nn12` stands 60 to 67 °C; under `O=C(N[C@H](Cc1ccc(C(F)(F)F)c(F)c1)[C@@H](O)c1ccc(F)cc1)c1ccc(F)c2ccccc12` (racemic), 212 to 213 °C.

Consider `Cc1ccc(Sc2ccccc2)c(C(=O)O)c1`, for which the melting point was 156 to 157 °C.
